Article PMC12036875, “Mitochondria-targeting natural product rhein conjugated with dichloroacetate as the dual inhibitor of glycolysis and oxidative phosphorylation to off energize cancer cells and induce ROS storm” (Theranostics, 2025)

What was measured:
4T1 cells [1] = test: ROS generation assay; format: cell-based, Mouse; details: for intracellular ROS (DCFH-DA fluorescence intensity): 6.25 μM, 6 h
Description: Rhein is thought to trigger the generation of ROS inside cells by inhibiting mitochondrial complex II, blocking electron transfer from succinate to ubiquinone, which leads to electron leakage at the flavoprotein site, [32]. Therefore, we investigated the ROS production within 4T1 cells in control, DCA, rhein, R + D and Rhein-DCA groups. […] Then, the cellular superoxide radical anion type of ROS production was further detected using dihydroethidium (DHE) fluorescence dyes after incubation with 4T1 cells. […] The flow cytometry was used to further confirm the types of reactive oxygen species, including singlet oxygen (^1O2) and hydroxyl radicals (·OH). The ^1O2 increased greatly about 2.4-fold compared with the control group, and ·OH increased about 1.4-fold (Figure 5D-E). […] Due to the conjugating of rhein, the more mitochondrial accumulation and enhanced PDK inhibition activity of DCA promoted the energy metabolism to redirect towards OXPHOS, increased the mitochondrial electron flux, and amplified the generation of ROS. Excessive ROS would cause oxidative damage of mitochondria and further frustrate OXPHOS, leading to the effectively suppress for cancer cells.
The generation of intracellular ROS within 4T1 cells was measured with DCFH-DA, BBoxiProbe O28 and BBoxiProbe O68 and evaluated by flow cytometry. 4T1 cells were seeded into 6-well plates at a density of 10 × 10^4 cells per well and cultured at 37 °C for 24 h. The cells were treated with rhein (6.25 μM), DCA (6.25 μM), R + D (6.25 μM + 6.25 μM) and Rhein-DCA (6.25 μM) for another 6 h. Cells were detached from the plates with 0.25% Trypsin-EDTA after washed twice with PBS, flowing staining with DCFH-DA (10 μM), BBoxiProbe O28 (Ex = 516 nm, Em = 606 nm) and BBoxiProbe O68 (Ex = 516 nm, Em = 606 nm) for 20 min at 37 °C in the dark.
The level of intracellular superoxide radical anion in 4T1 cells was analyzed with DHE by confocal microscope. 4T1 cells were seeded into confocal dishes with a density of 10 × 10^4 cells per well and treated with various drugs for 24 h and washed twice with PBS, flowing staining with DHE probe (5 μM) for 30 min at 37 °C in the dark. The cellular nuclei were stained with Hoechst 33342 for 10 min at room temperature. The fluorescent images were observed by confocal microscope.

mPTP in 4T1 cells = test: Mitochondrial permeability transition pore opening assay (Calcein AM); format: cell-based, Mouse; details: 6.25 μM, 24 h
From the text: On the other hand, rhein could also disturb mitochondria, the camp of OXPHOS, to further prevent cancer cells from obtaining ATP by inducing pathological opening of mPTP [30]. We first detected mPTP on 4T1 cancer cells treated with indicated drugs according to the mPTP assay kit. The green fluorescence of Calcein AM in mitochondria would vanish when the quencher entered mitochondria through the opened mPTP channel. […] The sustained opening of mPTP along with the loss of Δψm. Thus, we further examined the Δψm of 4T1 cancer cells with JC-1 fluorescence dyes and tetramethylrhodamine, ethyl ester (TMRE) probe. The JC-1 dyes underwent a transition from aggregated red fluorescence to monomeric green fluorescence with mitochondrial depolarization in cells, and the increase of green/red fluorescence intensity ratio of JC-1 dyes indicated mitochondrial depolarization.
The opening status of the mPTP in 4T1 cells were tested with fluorescent probe Calcein AM. Briefly, 4T1 cells were seeded into 6-wells plates at a density of 10 × 10^4 cells per well and treated with various drugs at 6.25 μM for 24 h. After being washed twice with PBS, the cells were stained with Calcein AM staining solution (1 ×) and CoCl2 fluorescence quenching solution (1 ×) for 45 min at 37 °C in the dark. Next, they were further cultured with fresh medium at 37 °C for another 30 min in the dark. […]

[2] = Stability in 2.5% DMSO-PBS by UV-Vis absorption; format: physicochemical; details: room temperature, 0-12 h
Description: (§1) Stability of drugs is vital indexes for anticancer application. The stability of Rhein-DCA conjugate in vitro was performed by dispersing it in 2.5% dimethyl sulfoxide (DMSO)-PBS at room temperature for 0, 2, 6 and 12 h. […] Furthermore, we also quantitatively analyzed the intracellular stability of Rhein-DCA using high-performance liquid chromatography (HPLC). After 4 h of uptake, the intracellular concentration of Rhein-DCA was 0.095 μg/10^6 cells within 4T1 cells.
UV-Vis spectra were used to investigate the stability of Rhein-DCA conjugate. The Rhein-DCA was dispersed in 2.5% DMSO-PBS at room temperature, and the absorption spectrum was monitored at 0, 2, 6 and 12 h. High performance liquid chromatography (HPLC) was used to investigate the intracellular stability of Rhein-DCA conjugate. 4T1 cells were seeded in cell culture dish (diameter of 10 cm) at a density of 2 × 10^6 cells per dish and cultured in the incubator for 24 h. Then the cells were further treated with Rhein-DCA conjugate at a concentration of 11 μg/mL for 4 h. After removing media and washing the cells three times with PBS to remove the residual Rhein-DCA, the cells were incubated for another 2 h. […] A C18 column was used with methanol / 0.1% H₃PO₄ (83:17) as the mobile phase, flow rate 1.0 mL/min, fluorescence detector with an excitation wavelength of 443 nm and an emission wavelength of 530 nm.

4T1 cells [3] = test: Intracellular stability by HPLC; format: in vitro ADME, Mouse
Description: as §1
UV-Vis spectra were used to investigate the stability of Rhein-DCA conjugate. The Rhein-DCA was dispersed in 2.5% DMSO-PBS at room temperature, and the absorption spectrum was monitored at 0, 2, 6 and 12 h. High performance liquid chromatography (HPLC) was used to investigate the intracellular stability of Rhein-DCA conjugate. 4T1 cells were seeded in cell culture dish (diameter of 10 cm) at a density of 2 × 10^6 cells per dish and cultured in the incubator for 24 h. Then the cells were further treated with Rhein-DCA conjugate at a concentration of 11 μg/mL for 4 h. After removing media and washing the cells three times with PBS to remove the residual Rhein-DCA, the cells were incubated for another 2 h. Then, the cells were collected and washed twice with PBS. The cells were suspended in 1 mL methanol to obtain cell lysates by three freeze-thaw. Then the supernatant was collected after centrifugation at 13000 G for 10 min for HPLC analysis. A C18 column was used with methanol / 0.1% H₃PO₄ (83:17) as the mobile phase, flow rate 1.0 mL/min, fluorescence detector with an excitation wavelength of 443 nm and an emission wavelength of 530 nm.

Structure (SMILES) | intracellular ROS (DCFH-DA fluorescence intensity) (4T1 cells [1]; flow cytometry) | superoxide radical anion (DHE fluorescence) (4T1 cells [1]; 24 h, CLSM) | ^1O2 increase compared with control group (4T1 cells [1]; flow cytometry) | ·OH increase compared with control group (4T1 cells [1]; flow cytometry) | mPTP opening (Calcein AM green fluorescence) (mPTP in 4T1 cells) | stability (UV-Vis absorption spectra) [2] | intracellular concentration after 4 h of uptake (4T1 cells [3]; 11 μg/mL, 4 h) [μg/10^6 cells] | residual intracellular concentration after removing drug and incubating another 2 h (4T1 cells [3]; 4 h uptake then 2 h drug-free) [μg/10^6 cells] | intracellular degradation rate (4T1 cells [3]; within 2 h)
O=C(O)c1cc(O)c2c(c1)C(=O)c1cccc(O)c1C2=O [Rhein, 4,5-dihydroxyanthraquinone-2-carboxylic acid] | slight enhancement |  |  |  |  |  |  |  | 
O=C(OCCOC(=O)C(Cl)Cl)c1cc(O)c2c(c1)C(=O)c1cccc(O)c1C2=O [Rhein-DCA] | stronger fluorescence signal | remarkable red intensity | about 2.4 fold | about 1.4 fold | faintest green fluorescence | relatively stable | 0.095 | 0.080 | approximately 15.7%
